In article PMC9684509, “Construction of a synthetic methodology-based library and its application in identifying a GIT/PIX protein–protein interaction inhibitor” (Nature Communications, 2022):
Ends that are not written are not given here.

T1: GIT1 1–370 (Mus musculus, UniProt Q68FF6)
T1 construct: residues 1-370, E. coli BL21(DE3), N-terminal Trx-His6 tag removed by HRV-3C protease; for BLI biotin-labelled (BLI construct not restated)
T1 sequence (Q68FF6 1-370): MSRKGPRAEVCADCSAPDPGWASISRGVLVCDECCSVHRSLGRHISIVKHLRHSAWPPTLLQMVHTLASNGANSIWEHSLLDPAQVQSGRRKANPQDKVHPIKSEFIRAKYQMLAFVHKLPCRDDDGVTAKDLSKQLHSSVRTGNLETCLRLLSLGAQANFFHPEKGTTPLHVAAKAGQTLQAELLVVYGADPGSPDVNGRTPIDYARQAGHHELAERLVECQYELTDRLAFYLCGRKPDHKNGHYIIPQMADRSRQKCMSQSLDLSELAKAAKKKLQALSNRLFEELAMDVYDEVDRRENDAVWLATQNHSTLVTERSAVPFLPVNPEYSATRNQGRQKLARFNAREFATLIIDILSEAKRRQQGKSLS

T2: GIT1 1–370 (mouse) (mouse, UniProt Q68FF6 1-370)
T2 construct: GIT1, mouse, aa 1-370 (GenBank NM_001004144.1), cloned into pET32M3C; also called GIT1 protein; source: E. coli BL21 (DE3), purified (Ni-NTA, SEC, tag cleaved by HRV-3C, SEC); not shown: Trx, N-terminal, cleaved; His6, N-terminal, cleaved
T2 sequence (looked up): T1 sequence (Q68FF6 1-370)

B1: FITC-β-Pix fluorescent peptide (peptide)
peptide: ALEEDAQILKVIEAYCTSAKT
modifications: not fully specified (N-terminus)
notes: source: synthetic peptide (China peptide, Shanghai)

Molecular target: T1, GIT1 1–370
Experiment: biochemical
Set-up: Biolayer interferometry, kinetic binding of 14-5-18 to GIT1
Conditions: read-out: ka
Text: We next investigated whether compounds 14-5-18 and 15-4-26 specifically perturbed the GIT1/β-Pix interaction in living cells. Firstly, we performed Cellular Thermal Shift Assay (CETSA) to preliminarily explore the target engagement of the compounds with GIT1 (Supplementary Fig. 4). CETSA relies on the fact that proteins are generally vulnerable to thermal conditions, while physical binding with other molecules could improve their stability. […] Therefore, further evaluations were only performed with 14-5-18, and 15-4-26 was suspended for its poor potential for drug development. […] Similarly, under thermal conditions from 30 to 90 °C, 14-5-18 (50 µM) also considerably stabilized GIT1, especially at high temperatures (Supplementary Fig. 4c). To further confirm whether 14-5-18 directly bound to GIT1, we used biolayer interferometry (BLI) assay to measure their interaction. […] Concentrations ranging from 25 to 400 μM were shown with the real-time response for each step of the kinetic assay. b Co-IP assay to indicate the interaction of GIT1 and β-Pix and the inhibitory effects of 14-5-18. […] GFP-GIT1 (green) and Myc-β-Pix were expressed followed by treatment with a fluorescent secondary antibody (red) in the MGC803 cell line to construct the fluorescence system. […] Plot fluorescence intensities of the area marked by the white lines in the left panels are shown in the right graphs. […]

Row | kon [M⁻¹ s⁻¹] | Molecule
1 | 200 | CCOC(=O)[C@@H]1[C@@H]2C[C@@H](/C(=C\c3ccoc3)C2=O)[C@@]12C(=O)N(C)c1ccccc12 [14-5-18, ethyl (1S,2R,3R,4S,E)-6-(furan-3-ylmethylene)-1'-methyl-2',5-dioxospiro [bicyclo[2.2.1]heptane-2,3'-indoline]-3-carboxylate]

Same assay, conditions: read-out: kdis

Row | koff [s⁻¹] | Molecule
2 | 0.00154 | CCOC(=O)[C@@H]1[C@@H]2C[C@@H](/C(=C\c3ccoc3)C2=O)[C@@]12C(=O)N(C)c1ccccc12 [14-5-18, ethyl (1S,2R,3R,4S,E)-6-(furan-3-ylmethylene)-1'-methyl-2',5-dioxospiro [bicyclo[2.2.1]heptane-2,3'-indoline]-3-carboxylate]

Molecular target: T1, GIT1 1–370
Experiment: fluorescence polarization competition with FITC-beta-Pix peptide
Type: binding
Conditions: not given

Row | Ki [µM] | Molecule
3 | 1.5 | CCOC(=O)C1=C[C@H](c2cccc(C)c2)[C@H]2CC[C@@H](CC(=O)C3CCCCC3)O[C@H]2N1S(=O)(=O)c1ccc(C)cc1 [15-4-26]
4 | 1.8 | CCOC(=O)[C@@H]1[C@@H]2C[C@@H](/C(=C\c3ccoc3)C2=O)[C@@]12C(=O)N(C)c1ccccc12 [14-5-18]

Molecular target: T1, GIT1 1–370
Experiment: biochemical
Set-up: fluorescence polarization competition, displacement of FITC-beta-Pix peptide from GIT1
Conditions: read-out: IC50 in FP assay
Experimental: GIT1 protein purification: Purification of GIT1 1–370 was performed following a published protocol. Briefly, the coding sequence of mouse GIT1 aa. 1–370 (GenBank: NM_001004144.1) was cloned into a pET32M3C (with an N-terminal Trx-His6 tag) vector. The recombinant protein was expressed in Escherichia coli BL21 (DE3) cells at 16 °C for 18 h induced by the isopropyl-β-D-thiogalactoside (IPTG) at a final concentration of 0.2 mM. The N-terminal Trx-His6-tagged GIT1 1–370 was purified by Ni^2+-NTA agarose affinity chromatography, followed by a Superdex-200 26/60 size-exclusion chromatography (GE Healthcare, Cytiva). To remove the Trx-His6 tag, GIT1 protein was cleaved by HRV-3C protease at 4 °C overnight and then purified by another step of SEC purification. The β-Pix-positive peptide (sequence: […]) and fluorescent peptide (sequence: FITC-(Acp)-[…]) were synthesized by China peptide (Shanghai, China). […] The fluorescence intensities, parallel and perpendicular to the plane of excitation, were determined in Corning black 96-well NBS assay plates at room temperature. Fluorescence polarization was determined using a Multi-Mode Detection Platform (SpectraMax Paradigm, Molecular Devices, USA) with 485 nm excitation and 535 nm emission filters, the values were expressed in millipolarization units (mP). The binding affinity of the fluorescent peptide toward GIT1 was first determined via titration. […]

Row | IC50 [µM] | Molecule
5 | > 1000 | O=C(NCc1ccco1)C1CN(C(=O)c2cccs2)CC12CCCCC2 (stereo not drawn) [S030-1757]

Molecular target: T2, GIT1 1–370 (mouse)
Experiment: fluorescence polarisation; direct titration: 100 nM fluorescent peptide with serial dilutions of GIT1 (0.01 to 10 µM), 80 µL; 100 mM NaCl, 50 mM Tris pH 7.5, room temperature
Conditions: both partners purified

Row | binding result | Molecule
6 | binds | B1

Molecular target: T1, GIT1 1–370
Experiment: biochemical
Set-up: Fluorescence polarization competition of FITC-beta-Pix peptide binding to GIT1 1-370
Conditions: read-out: IC50 in FP assay
Remark: another data set of the same source
Experimental: GIT1 protein purification: Purification of GIT1 1–370 was performed following a published protocol. Briefly, the coding sequence of mouse GIT1 aa. 1–370 (GenBank: NM_001004144.1) was cloned into a pET32M3C (with an N-terminal Trx-His6 tag) vector. The recombinant protein was expressed in Escherichia coli BL21 (DE3) cells at 16 °C for 18 h induced by the isopropyl-β-D-thiogalactoside (IPTG) at a final concentration of 0.2 mM. The N-terminal Trx-His6-tagged GIT1 1–370 was purified by Ni^2+-NTA agarose affinity chromatography, followed by a Superdex-200 26/60 size-exclusion chromatography (GE Healthcare, Cytiva). To remove the Trx-His6 tag, GIT1 protein was cleaved by HRV-3C protease at 4 °C overnight and then purified by another step of SEC purification. The β-Pix-positive peptide (sequence: […]) and fluorescent peptide (sequence: FITC-(Acp)-[…]) were synthesized by China peptide (Shanghai, China). FP assay was used to monitor interactions between GIT1 and the compounds. For each assay, fresh protein stocks of GIT1 were thawed. Assay buffer contained 100 mM NaCl, 50 mM Tris pH 7.5. All the experiments were prepared in duplicates. The fluorescence intensities, parallel and perpendicular to the plane of excitation, were determined in Corning black 96-well NBS assay plates at room temperature. Fluorescence polarization was determined using a Multi-Mode Detection Platform (SpectraMax Paradigm, Molecular Devices, USA) with 485 nm excitation and 535 nm emission filters, the values were expressed in millipolarization units (mP). The binding affinity of the fluorescent peptide toward GIT1 was first determined via titration. For this purpose, 100 nM fluorescent peptide was contacted with serial dilutions of GIT1 (concentration ranging from 0.01 to 10 µM) in a final volume of 80 µL. KD value was stimulated from FP values and protein concentrations using GraphPad Prism 8.0 software. Competition binding assay was performed using 100 nM fluorescent peptide and optimal protein concentration (2.0 µM) for the measurement was calculated based on determined KD. Tested compounds were prepared as serial dilutions (0.1–500 µM) in DMSO. […] Additionally, the commercial compound library ChemDiv was screened as a control. The 20 compounds with the best docking scores were selected, purchased, and further subjected to FP binding assay to test their inhibitory abilities. […] The screening was performed at both virtual and entity levels. In the virtual screening, the docking model of the GIT1/β-Pix complex was constructed, and the binding pocket was generated based on the complex structure of GIT2/β-Pix that we solved recently (PDB ID: 6JMT)[42] (Fig. 2c). The virtual library (SMBL-V) was subjected to the Sybyl-X 2.0 program to perform high-throughput docking screening with GIT1 at the specific binding pockets. […] The Autodock and Sybyl-X 2.0 programs were used in combination for the second round of screening. Twenty top-ranked molecules were selected, and 9 compounds were synthesized (one structure for each scaffold) to perform further evaluation (N = 9) (see Source Data File for detailed structures and scores). For the entity library (SMBL-E) screening, a fluorescence polarization (FP)-binding assay[43],[44] was established to evaluate the inhibitory abilities of the compounds on the GIT1/β-Pix interaction (Fig. 2d). Several representative compounds (N = 100) with different scaffolds were chosen for screening. Together with the 9 compounds selected from virtual screening, a total of 109 compounds were subjected to the FP binding assay to perform the final evaluation. Compound 15-4-26 from the virtual library and compound 14-5-18 from the entity library with the best binding affinities (Ki values) were selected as candidates (Fig. 2e and Supplementary Fig. 3).

Row | IC50 [µM] | Molecule
7 | > 1000 | Cn1c(=O)n(C)c2cc(CNC34CC5CC(C)(CC(C)(C5)C3)C4)ccc21 [D272-0692]
8 | > 100 | O=S(=O)(c1ccc2nc(Nc3ccc(Br)cc3F)ccc2c1)N1CCCCC1 [F052-0078]
9 | > 100 | Cc1cc(C)cc(S(=O)(=O)N2CCC3(CC2)NCCN=C3NCc2ccc(C(F)(F)F)cc2)c1 [L676-2486]
10 | > 1000 | CN1C(=O)C(c2c(-c3ccc4ccccc4c3)[nH]c3[nH]c(=O)[nH]c(=O)c23)c2ccccc21 (stereo not drawn) [D517-1064]
11 | > 1000 | CCS(=O)(=O)c1ccc2c(c1)N(Cc1nc(-c3ccc4c(c3)OCO4)no1)C(=O)CO2 [L111-0329]
12 | > 1000 | Cc1cc(-c2ccc3ccccc3n2)nc2ccc3ccccc3c12 [0443-0206]
13 | > 1000 | O=C1Nc2ccccc2Oc2cc(Oc3ccc4c(c3)OCO4)c(S(=O)(=O)N3CCCC3)cc21 [J030-0445]
14 | > 1000 | CC(NS(=O)(=O)c1ccc2c(c1)C(=O)c1cc(S(=O)(=O)NC(C)C(=O)O)ccc1-2)C(=O)O (stereo not drawn) [2578-0155]
15 | > 1000 | CC1=CC(C)(C)Nc2ccc(OC(=O)C(Cc3ccccc3)N3C(=O)C4CCCCC4C3=O)cc21 (stereo not drawn) [4934-0001]
16 | > 100 | Cc1ccc2cc3c(nc2c1)N(S(=O)(=O)c1ccc2c(c1)OCCO2)CC3 [D470-0645]
17 | > 100 | C1C2CC3CC1CC(C2)C3Nc1nc2nonc2nc1NC1C2CC3CC(C2)CC1C3 (stereo not drawn) [3277-0083]
18 | > 100 | Cn1c(=O)c2c(nc(Oc3cccc(C4Nc5ccc6ccccc6c5C5=C4C(=O)CC(C)(C)C5)c3)n2C)n(C)c1=O (stereo not drawn) [3277-0261]
19 | > 100 | O=C(Nc1cccc(OCc2cc(=O)n3cc(Cl)ccc3n2)c1)Nc1ccc2c(c1)OCCO2 [G756-2320]
20 | > 1000 | CC(CC(=O)Nc1ccc2c(c1)OCCO2)S(=O)(=O)c1ccc2c(c1)NC(=O)CCS2 (stereo not drawn) [L705-0544]
21 | > 1000 | CSc1cccc(NC(=O)Nc2ccc(Nc3cc(N(C)C)nc(C)n3)cc2)c1 [D638-0006F]
